PMC8603004 (EFSA Journal, 2021)
Where “and” joins values, the source holds several entries; their conditions need not be identical. Equal entries are not always repeated. Marks after values point to notes of the source that are not given here.

Assays:
[1] = ADME of 14C‐3‐NOP following single or multiple oral administration; type: in vivo, rat; details: for Radioactivity in plasma 48 h after the last dose: 50 mg/kg bw for five days
[2] = ADME in four lactating cows; type: in vivo
[3] = test system: Holstein Friesian dairy cows; experiment: Tolerance study in dairy cows; type: in vivo; details: for Dry matter intake: 56 days
[4] = test system: Chinese hamster V79 cells; experiment: In vitro micronucleus assay with CREST staining; type: cell-based
Wistar rats [5] = experiment: 90‐day oral gavage study; type: in vivo
Wistar rats [6] = experiment: 52‐week oral gavage study; type: in vivo
[7] = single 50 mg/kg bw, males, 48 h
[8] = trial iii, 500 mg/kg bw, 1 h, females
[9] = trial iii, 500 mg/kg bw, 1 h, males
[10] = trial iv, 5 x 50 mg/kg bw, 48 h after last administration, females
[11] = trial iv, 5 x 50 mg/kg bw, 48 h after last dose, males
[12] = 90.2 mg 3‐NOP/kg feed DM (× 0.8)
[13] = 106.8 mg 3‐NOP/kg feed DM (× 1)
[14] = 220.4 mg 3‐NOP/kg feed DM (× 2)

O=[N+]([O-])OCCCO [3‐NOP, propan‐1,3‐diol‐mononitrate]
Parent compound in the stomach and caecum ([1]; 500 mg/kg, 1 h, females): 70 % of administered dose
Parent compound in the stomach and caecum ([1]; 500 mg/kg, 1 h, males): 83 % of administered dose
Parent compound in the liver ([1]; 500 mg/kg, 1 h, two values given, sexes not named): 3.5 % of TRR
Total mean recovery of administered radioactivity ([1]; single 50 mg/kg bw, females): 91.1%
Urinary excretion, mean ([1]; single 50 mg/kg bw, females): 4.8%
Mean radioactivity in plasma 48 h after dosing ([1]; single 50 mg/kg bw, females, 50 mg/kg): 4.2 μg 3‐NOP‐eq/mL and 4.22 μg 3‐NOP‐eq/mL
Total mean recovery of administered radioactivity ([1]; single 50 mg/kg bw, males): 95.9%
Urinary excretion, mean ([1]; single 50 mg/kg bw, males): 6.3%
Administered radioactivity recovered in expired air ([1]; single 50 mg/kg bw, males and females): about 80%
Mean concentration of TR in adrenals [1, 7]: 19.5 μg 3‐NOP‐eq/g
Mean concentration of TR in bone marrow [1, 7]: 14.3 μg 3‐NOP‐eq/g
Mean concentration of TR in kidneys [1, 7]: 10.9 μg 3‐NOP‐eq/g
Mean concentration of TR in liver [1, 7]: 12.6 μg 3‐NOP‐eq/g
Mean radioactivity in plasma 48 h after dosing ([1]; single 50 mg/kg bw, males, 50 mg/kg): 7.0 μg 3‐NOP‐eq/mL and 7.03 μg 3‐NOP‐eq/mL
Administered radioactivity recovered in expired air ([1]; single 500 mg/kg bw, females): 61.7%
Total mean recovery of administered radioactivity ([1]; single 500 mg/kg bw, females): 85.3%
Urinary excretion, mean ([1]; single 500 mg/kg bw, females): 13.1%
Mean radioactivity in plasma 48 h after dosing ([1]; single 500 mg/kg bw, females, 500 mg/kg): 34.5 μg 3‐NOP‐eq/mL and 34.47 μg 3‐NOP‐eq/mL
Administered radioactivity recovered in expired air ([1]; single 500 mg/kg bw, males): 73.5%
Total mean recovery of administered radioactivity ([1]; single 500 mg/kg bw, males): 93.2%
Urinary excretion, mean ([1]; single 500 mg/kg bw, males): 11.3%
Mean radioactivity in plasma 48 h after dosing ([1]; single 500 mg/kg bw, males, 500 mg/kg): 51.9 μg 3‐NOP‐eq/mL and 51.92 μg 3‐NOP‐eq/mL
Mean concentration of TR in plasma ([1]; trial iii, 500 mg/kg bw, 15 min, females): 477 μg 3‐NOP‐eq/mL
Mean concentration of TR in plasma ([1]; trial iii, 500 mg/kg bw, 15 min, males): 396 μg 3‐NOP‐eq/mL
Mean concentration of TR in plasma ([1]; trial iii, 500 mg/kg bw, 45 min, females): 629 μg 3‐NOP‐eq/mL
Mean concentration of TR in plasma ([1]; trial iii, 500 mg/kg bw, 45 min, males): 512 μg 3‐NOP‐eq/mL
Mean concentration of TR in plasma [1, 8]: 583 μg 3‐NOP‐eq/mL
TR in kidneys [1, 8]: 865 μg 3‐NOP‐eq/g
TR in liver [1, 8]: 622 μg 3‐NOP‐eq/g
Mean TR in kidneys [1, 9]: 636 μg 3‐NOP‐eq/g
Mean TR in liver [1, 9]: 655 μg 3‐NOP‐eq/g
Mean TR in lungs [1, 9]: 494 μg 3‐NOP‐eq/g
Mean TR in pancreas [1, 9]: 471 μg 3‐NOP‐eq/g
Mean concentration of TR in plasma [1, 9]: 467 μg 3‐NOP‐eq/mL
Time of TR max in plasma ([1]; trial iii, 500 mg/kg bw, all animals): 45 min
Radioactivity in plasma 48 h after the last dose ([1]; trial iv, females): 11.7 μg 3‐NOP‐eq/mL
Radioactivity in plasma 48 h after the last dose ([1]; trial iv, males): 14.4 μg 3‐NOP‐eq/mL
TR in adrenals [1, 10]: 57.0 μg 3‐NOP‐eq
TR in bone marrow [1, 10]: 21.3 μg 3‐NOP‐eq/g
TR in kidneys [1, 10]: 30.0 μg 3‐NOP‐eq
TR in liver [1, 10]: 32.3 μg 3‐NOP‐eq
TR in lungs [1, 10]: 20.7 μg 3‐NOP‐eq/g
TR in ovaries [1, 10]: 35.7 μg 3‐NOP‐eq
TR in pancreas [1, 10]: 21.6 μg 3‐NOP‐eq/g
TR in renal fat [1, 10]: 34.1 μg 3‐NOP‐eq
TR in spleen [1, 10]: 20.1 μg 3‐NOP‐eq/g
TR in thymus [1, 10]: 24.7 μg 3‐NOP‐eq/g
TR in adrenals [1, 11]: 51.2 μg 3‐NOP‐eq/g
TR in bone marrow [1, 11]: 34.1 μg 3‐NOP‐eq/g
TR in epididymis [1, 11]: 18.2 μg 3‐NOP‐eq/g
TR in kidneys [1, 11]: 34.8 μg 3‐NOP‐eq/g
TR in liver [1, 11]: 34.9 μg 3‐NOP‐eq/g
TR in lungs [1, 11]: 18.7 μg 3‐NOP‐eq/g
TR in pancreas [1, 11]: 20.0 μg 3‐NOP‐eq/g
TR in prostate [1, 11]: 24.6 μg 3‐NOP‐eq/g
TR in spleen [1, 11]: 22.9 μg 3‐NOP‐eq/g
TR in thymus [1, 11]: 28.5 μg 3‐NOP‐eq/g
Mean cumulative excretion via the expired air ([1]; trial iv, 48 h after the last dose): about 70 % of the total administered radioactivity
Radioactivity in carcass ([1]; trial iv, females): 3.6%
Total mean recovery of the administered radioactivity ([1]; trial iv, females): 83.1%
Radioactivity in carcass ([1]; trial iv, males): 3.5%
Total mean recovery of the administered radioactivity ([1]; trial iv, males): 86.4%
Radioactivity excreted via faeces, mean ([2]; 1.8 g/animal per day, 7 days): 2.7 % of radioactivity totally app
Radioactivity excreted via milk, mean ([2]; 1.8 g/animal per day, 7 days): 16.82 % of radioactivity totally app
Radioactivity excreted via urine, mean ([2]; 1.8 g/animal per day, 7 days): 4 % of radioactivity totally app
Radioactivity remaining in the total tissues ([2]; 1.8 g/animal per day, 7 days): 6.2 % of radioactivity totally app
Total radioactivity excreted ([2]; 1.8 g/animal per day, 7 days): 23.5%
Total recovery at sacrifice ([2]; 1.8 g/animal per day, 7 days): approximately 30%
3‐NOP and NOPA in total excreta, worst‐case scenario ([2]; dairy cows): ≤ 0.2%
Residue in milk, not found above the LOQ ([2]; in vivo): < 8 μg 3‐NOP‐equivalents/kg
Residue in tissues, not found above the LOQ ([2]; in vivo): < 21 μg 3‐NOP‐equivalents/kg
Amount in urine ([2]; urine of one animal (day 2–day 6)): 0.1 % of the dose
ALT [3, 12]: 27* U/L
Albumin [3, 12]: 36 g/L
Amylase [3, 12]: 34 U/L
Body weight [3, 12]: 676 kg
Body weight change [3, 12]: 43.6 kg
Fat yield [3, 12]: 0.81 kg/day
Fibrinogen [3, 12]: 0.88 g/L
Haematocrit [3, 12]: 28* %
Haemoglobin d56 [3, 12]: 110 g/L
LDH d56 [3, 12]: 1249 U/L
Mean corpuscular haemoglobin [3, 12]: 16.5* pg
Milk yield [3, 12]: 28.7 kg/day
Monocytes d5 [3, 12]: 4.8e+08 L⁻¹
Monocytes d56 [3, 12]: 3.1e+08 L⁻¹
Ovary absolute size [3, 12]: 31.9 g
Ovary relative size [3, 12]: 0.048 g per kg final bw
Protein yield [3, 12]: 0.92 kg/day
Prothrombin time [3, 12]: 27.3* s
Red blood cells [3, 12]: 6.52* ×10^12/L
Water consumption [3, 12]: 95.9 kg/day
Dry matter intake [3, 12]: 22.9 kg/day
ALT [3, 13]: 27* U/L
Albumin [3, 13]: 36 g/L
Amylase [3, 13]: 34 U/L
Body weight [3, 13]: 675 kg
Body weight change [3, 13]: 42.2 kg
Ca [3, 13]: 2.47* mmol/L
Energy corrected milk [3, 13]: 22.7 kg/day
Fat yield [3, 13]: 0.74 kg/day
Fibrinogen [3, 13]: 0.93 g/L
Haematocrit [3, 13]: 28* %
Haemoglobin d56 [3, 13]: 109 g/L
LDH d56 [3, 13]: 1245 U/L
Milk yield [3, 13]: 27.5 kg/day
Monocytes d5 [3, 13]: 4.6e+08 L⁻¹
Ovary absolute size [3, 13]: 29.7 g
Ovary relative size [3, 13]: 0.040 g per kg final bw
Protein yield [3, 13]: 0.88 kg/day
Red blood cells [3, 13]: 6.39* ×10^12/L
Total cholesterol [3, 13]: 4.18* mmol/L
Triglycerides [3, 13]: 0.130 mmol/L
Water consumption [3, 13]: 94.6 kg/day
Dry matter intake [3, 13]: 22.8 kg/day
ALT [3, 14]: 24* U/L
Albumin [3, 14]: 35* g/L
Amylase [3, 14]: 31* U/L
Body weight [3, 14]: 670 kg
Body weight change [3, 14]: 36.6 kg
Ca [3, 14]: 2.40 mmol/L
Energy corrected milk [3, 14]: 24.7* kg/day
Fat yield [3, 14]: 0.89* kg/day
Fibrinogen [3, 14]: 1.00* g/L
Haematocrit [3, 14]: 27* %
Haemoglobin d56 [3, 14]: 103* g/L
LDH d56 [3, 14]: 1034* U/L
Mean corpuscular haemoglobin [3, 14]: 16 pg
Milk yield [3, 14]: 27.5 kg/day
Monocytes d5 [3, 14]: 0.43* ×10^9/L
Ovary absolute size [3, 14]: 25.8* g
Protein yield [3, 14]: 0.91 kg/day
Prothrombin time [3, 14]: 27.0* s
Red blood cells [3, 14]: 6.42* ×10^12/L
Total cholesterol [3, 14]: 4.18* mmol/L
Triglycerides [3, 14]: 0.124* mmol/L
Water consumption [3, 14]: 87.0* kg/day
Dry matter intake [3, 14]: 21.8* kg/day
Number of cows with signs of liver chronic inflammation (out of 8) ([3]; 0.8× group (control 2)): 0
Number of cows with signs of liver chronic inflammation (out of 8) ([3]; 1× group (control 2)): 3
DM intake less than in the control group ([3]; 2× group): 4%
Energy corrected milk yield increase compared with the control ([3]; 2× group): 7%
Number of cows with signs of liver chronic inflammation (out of 8) ([3]; 2× group (control 2)): 5
Micronuclei containing chromosome fragments (CREST staining) ([4]; 540 μg/mL): 79%
Micronucleus frequency ([4]; with metabolic activation, 3 + 21 h, at 540, 570 and 600 μg/mL): statistically significant increase in micronuclei
NOAEL (Wistar rats [5]; females): 300 mg/kg bw per day
NOAEL (Wistar rats [5]; males, effects on spermatogenesis): 100 mg 3‐NOP/kg bw per day
NOAEL (Wistar rats [6]; females): 600 mg 3‐NOP/kg bw per day
NOAEL (Wistar rats [6]; males): 100 mg 3‐NOP/kg bw per day
